Data as given in US20080234297A1, “HSP90 Inhibitors Containing a Zinc Binding Moiety” (priority 2007, published 2008).

What was measured:
[1] = molecular target: HSP90; experiment: Hsp90 chaperone assay (refolding of heat-denatured luciferase); assay type: biochemical; conditions: luminescence readout, graded IC50
Description: (a) An In Vitro Assay which Determines the Ability of a Test Compound to Inhibit Hsp90 Chaperone Activity.
The Hsp90 chaperone assay was performed to measure the ability of HSP90 protein to refold the heat-denatured luciferase protein. HSP90 was first incubated with different concentrations of test compounds in denaturation buffer (25 mM Tris, pH7.5, 8 mM MgSO4, 0.01% bovine gamma globulin and 10% glycerol) at room temperature for 30 min. Luciferase protein was added to denaturation mix and incubated at 50° C. for 8 min. The final concentration of HSP90 and luciferase in denaturation mixture were 0.375 μM and 0.125 μM respectively. A 5 μl sample of the denatured mix was diluted into 25 μl of renaturation buffer (25 mM Tris, pH7.5, 8 mM MgSO4, 0.01% bovine gamma globulin and 10% glycerol, 0.5 mM ATP, 2 mM DTT, 5 mM KCl, 0.3 μM HSP70 and 0.15 μM HSP40). The renaturation reaction was incubated at room temperature for 150 min, followed by dilution of 10 μl of the renatured sample into 90 μl of luciferin reagent (Luclite, PerkinElmer Life Science). The mixture was incubated at dark for 5 min before reading the luminescence signal on a TopCount plate reader (PerkinElmer Life Science).
(§1) The following TABLE B lists compounds representative of the invention and their activity in HDAC and HSP90 assays. In these assays, the following grading was used: I≧10 μM, 10 μM>II>1 μM, 1 μM>III>0.1 μM, and IV≦0.1 μM for IC50.

[2] = test system: HDAC (HeLa nuclear extract); experiment: HDAC fluorimetric assay kit (AK-500, Biomol), inhibition of HDAC enzymatic activity; assay type: biochemical; conditions: Fluor de Lys substrate, graded IC50
Description: (b) An In Vitro Assay which Determines the Ability of a Test Compound to Inhibit HDAC Enzymatic Activity.
HDAC inhibitors were screened using an HDAC fluorimetric assay kit (AK-500, Biomol, Plymouth Meeting, Pa.). Test compounds were dissolved in dimethylsulphoxide (DMSO) to give a 20 mM working stock concentration. Fluorescence was measured on a WALLAC Victor 2 plate reader and reported as relative fluorescence units (RFU). Data were plotted using GraphPad Prism (v4.0a) and IC50's calculated using a sigmoidal dose response curve fitting algorithm. Each assay was setup as follows: Defrosted all kit components and kept on ice until use. Diluted HeLa nuclear extract 1:29 in Assay Buffer (50 mM Tris/Cl, pH 8.0, 137 mM NaCl, 2.7 mM KCl, 1 mM MgCl2). Prepared dilutions of Trichostatin A (TSA, positive control) and tested compounds in assay buffer (5× of final concentration). Diluted Fluor de Lys™ Substrate in assay buffer to 100 uM (50 fold=2× final). Diluted Fluor de Lys™ developer concentrate 20-fold (e.g. 50 μl plus 950 μl Assay Buffer) in cold assay buffer. Second, diluted the 0.2 mM Trichostatin A 100-fold in the 1× Developer (e.g. 10 μl in 1 ml; final Trichostatin A concentration in the 1× Developer=2 μM; final concentration after addition to HDAC/Substrate reaction=1 μM). Added Assay buffer, diluted trichostatin A or test inhibitor to appropriate wells of the microtiter plate. Added diluted HeLa extract or other HDAC sample to all wells except for negative controls. Allowed diluted Fluor de Lys™ Substrate and the samples in the microtiter plate to equilibrate to assay temperature (e.g. 25 or 37° C. Initiated HDAC reactions by adding diluted substrate (25 μl) to each well and mixing thoroughly. Allowed HDAC reactions to proceed for 1 hour and then stopped them by addition of Fluor de Lys™ Developer ([…]). Incubated plate at room temperature (25° C.) for 10-15 min. Read samples in a microtiter-plate reading fluorimeter capable of excitation at a wavelength in the range 350-380 nm and detection of emitted light in the range 440-460 nm.
as §1

Row | Compound | melting point | IC50 [1] [µM] | IC50 [2] [µM]
1 | Nc1ncnc2c1nc(Sc1cc3c(cc1Br)OCO3)n2CC(=O)NO [Compound 1, 2-(6-amino-8-(6-bromobenzo[d][1,3]dioxol-5-ylthio)-9H-purin-9-yl)-N-hydroxyacetamide] | 230 °C (dec.) |  | 
2 | Nc1ncnc2c1nc(Sc1cc3c(cc1Br)OCO3)n2CCCCCC(=O)NO [Compound 5, 6-(6-amino-8-(6-bromobenzo[d][1,3]dioxol-5-ylthio)-9H-purin-9-yl)-N-hydroxyhexanamide] |  | 0.1 to 1 | 0.1 to 1
3 | Nc1ncnc2c1nc(Sc1cc3c(cc1Br)OCO3)n2CCCCCCC(=O)NO [Compound 6, 7-(6-amino-8-(6-bromobenzo[d][1,3]dioxol-5-ylthio)-9H-purin-9-yl)-N-hydroxyheptanamide] |  | 0.1 to 1 | ≤ 0.1
4 | COc1ccc(I)c(Sc2nc3c(N)ncnc3n2CCCCCCC(=O)NO)c1 [Compound 12, 7-(6-amino-8-(2-iodo-5-methoxyphenylthio)-9H-purin-9-yl)-N-hydroxyheptanamide] |  |  | ≤ 0.1
5 | C#CCCCn1c(Sc2cccc(C(=O)NO)c2)nc2c(N)ncnc21 [Compound 13] |  | ≥ 10 | ≥ 10
6 | C#CCCCn1c(Sc2cccc(OCC(=O)NO)c2)nc2c(N)ncnc21 [Compound 14, 2-(3-(6-amino-9-(pent-4-ynyl)-9H-purin-8-ylthio)phenoxy)-N-hydroxyacetamide] |  |  | 0.1 to 1
7 | C#CCCCn1c(Sc2cccc(OCCCC(=O)NO)c2)nc2c(N)ncnc21 [Compound 16, 4-(3-(6-amino-9-(pent-4-ynyl)-9H-purin-8-ylthio)phenoxy)-N-hydroxybutanamide] |  | ≥ 10 | ≤ 0.1
8 | C#CCCCn1c(Sc2cccc(OCCCCCC(=O)NO)c2)nc2c(N)ncnc21 [Compound 18, 6-(3-(6-amino-9-(pent-4-ynyl)-9H-purin-8-ylthio)phenoxy)-N-hydroxyhexanamide] |  | ≥ 10 | ≤ 0.1
9 | Nc1ncnc2c1nc(Sc1cc3c(cc1Br)OCO3)n2CCNCCC(=O)NO [Compound 20, 3-(2-(6-amino-8-(6-bromobenzo[d][1,3]dioxol-5-ylthio)-9H-purin-9-yl)ethylamino)-N-hydroxypropanamide] |  | 0.1 to 1 | ≥ 10
10 | Nc1ncnc2c1nc(Sc1cc3c(cc1Br)OCO3)n2CCNCCCCCC(=O)NO [Compound 23, 6-(2-(6-amino-8-(6-bromobenzo[d][1,3]dioxol-5-ylthio)-9H-purin-9-yl)ethylamino)-N-hydroxyhexanamide] |  | 0.1 to 1 | ≤ 0.1
11 | Nc1ncnc2c1nc(Sc1cc3c(cc1Br)OCO3)n2CCNCCCCCCC(=O)NO [Compound 24, 7-(2-(6-amino-8-(6-bromobenzo[d][1,3]dioxol-5-ylthio)-9H-purin-9-yl)ethylamino)-N-hydroxyheptanamide] |  | 0.1 to 1 | ≤ 0.1
12 | Nc1ncnc2c1nc(Sc1cc3c(cc1Br)OCO3)n2CCOCCCC(=O)NO [Compound 27, 4-(2-(6-amino-8-(6-bromobenzo[d][1,3]dioxol-5-ylthio)-9H-purin-9-yl)ethoxy)-N-hydroxybutanamide] |  | ≥ 10 | ≥ 10
13 | Nc1ncnc2c1nc(Sc1cc3c(cc1Br)OCO3)n2CCOCCCCC(=O)NO [Compound 28, 5-(2-(6-amino-8-(6-bromobenzo[d][1,3]dioxol-5-ylthio)-9H-purin-9-yl)ethoxy)-N-hydroxypentanamide] |  | ≥ 10 | 1 to 10
14 | Nc1ncnc2c1nc(Sc1cc3c(cc1Br)OCO3)n2CCOCCCCCC(=O)NO [Compound 29, 6-(2-(6-amino-8-(6-bromobenzo[d][1,3]dioxol-5-ylthio)-9H-purin-9-yl)ethoxy)-N-hydroxyhexanamide] |  | ≥ 10 | 1 to 10
15 | Nc1ncnc2c1nc(Sc1cc3c(cc1Br)OCO3)n2CCOCCCCCCC(=O)NO [Compound 30, 7-(2-(6-amino-8-(6-bromobenzo[d][1,3]dioxol-5-ylthio)-9H-purin-9-yl)ethoxy)-N-hydroxyheptanamide] |  | ≥ 10 | ≤ 0.1
16 | Nc1ncnc2c1nc(Sc1cc3c(cc1Cl)OCO3)n2CCCCCCC(=O)NO [Compound 31, 7-(6-amino-8-(6-chlorobenzo[d][1,3]dioxol-5-ylthio)-9H-purin-9-yl)-N-hydroxyheptanamide] |  | 1 to 10 | ≤ 0.1
17 | Nc1ncnc2c1nc(Sc1cc3c(cc1I)OCO3)n2CCCCCCC(=O)NO [Compound 32, 7-(6-amino-8-(6-iodobenzo[d][1,3]dioxol-5-ylthio)-9H-purin-9-yl)-N-hydroxyheptanamide] |  | ≤ 0.1 | ≤ 0.1
18 | Nc1ncnc2c1nc(Sc1cc3c(cc1Br)OCO3)n2CCNCC(=O)NO [Compound 33] |  | 0.1 to 1 | ≥ 10
19 | Nc1nccc2c1nc(Sc1cc3c(cc1Cl)OCO3)n2CCCCCCC(=O)NO [Compound 34, 7-(4-amino-2-(6-chlorobenzo[d][1,3]dioxol-5-ylthio)-1H-imidazo[4,5-c]pyridin-1-yl)-N-hydroxyheptanamide] |  | 1 to 10 | ≤ 0.1
20 | Nc1nccc2c1nc(Sc1cc3c(cc1Br)OCO3)n2CCCCCCC(=O)NO [Compound 35, 7-(4-amino-2-(6-bromobenzo[d][1,3]dioxol-5-ylthio)-1H-imidazo[4,5-c]pyridin-1-yl)-N-hydroxyheptanamide] |  | 1 to 10 | ≤ 0.1
21 | Nc1nccc2c1nc(Sc1cc3c(cc1I)OCO3)n2CCCCCCC(=O)NO [Compound 36, 7-(4-amino-2-(6-iodobenzo[d][1,3]dioxol-5-ylthio)-1H-imidazo[4,5-c]pyridin-1-yl)-N-hydroxyheptanamide] |  | 0.1 to 1 | ≤ 0.1
22 | Nc1ncnc2c1nc(Sc1cc3c(cc1I)OCO3)n2CCNCC(=O)NO [Compound 37] |  | 0.1 to 1 | ≥ 10
23 | Nc1ncnc2c1nc(Sc1cc3c(cc1I)OCO3)n2CCNCCCCCC(=O)NO [Compound 38, 6-(2-(6-amino-8-(6-iodobenzo[d][1,3]dioxol-5-ylthio)-9H-purin-9-yl)ethylamino)-N-hydroxyhexanamide] |  | 0.1 to 1 | 0.1 to 1
24 | Nc1ncnc2c1nc(Sc1cc3c(cc1I)OCO3)n2CCNCCCCCCC(=O)NO [Compound 39, 7-(2-(6-amino-8-(6-iodobenzo[d][1,3]dioxol-5-ylthio)-9H-purin-9-yl)ethylamino)-N-hydroxyheptanamide] |  | 0.1 to 1 | ≤ 0.1
25 | Nc1ncnc2c1nc(Sc1cc3c(cc1Br)OCO3)n2CCOCC(=O)NO [Compound 40] |  | ≥ 10 | ≥ 10
26 | Nc1ncnc2c1nc(Sc1cc3c(cc1Br)OCO3)n2CCNCCCCCCCC(=O)NO [Compound 41, 8-(2-(6-amino-8-(6-bromobenzo[d][1,3]dioxol-5-ylthio)-9H-purin-9-yl)ethylamino)-N-hydroxyoctanamide] |  |  | ≤ 0.1
